Measurements as given in patent US20230233569A1 (Revolution Medicines, Inc., priority 2020, published 2023).
Where two headings read alike, the source gives them in different places.

Key:
KRAS G12V [1] = target: T1, KRAS G12V (Homo sapiens, UniProt P01116+P62937, G12V); experiment: Ras-Raf disruption / FRET / MOA assay (BRAF RBD); assay type: biochemical; conditions: with Cyclophilin A
Source text: (§1) Disruption of […] Ras-binding Domain (BRAF^RBD) Interaction with K-Ras by Compounds of the Invention (also Called a FRET Assay or an MOA Assay)
(§2) Note—The following protocol describes a procedure for monitoring disruption of K-Ras G12C (GMP-PNP) binding to BRAF^RBD by a compound of the invention. This protocol may also be executed substituting other Ras proteins or nucleotides, such as K-Ras G12D and K-Ras G13D.
(§3) The purpose of this biochemical assay was to measure the ability of test compounds to facilitate ternary complex formation between a nucleotide-loaded K-Ras isoform and Cyclophilin A; the resulting ternary complex disrupts binding to a BRAF^RBD construct, inhibiting K-Ras signaling through a RAF effector. Data is reported as IC50 values.
(§4) In assay buffer containing 25 mM HEPES pH 7.3, 0.002% Tween20, 0.1% BSA, 100 mM NaCl and 5 mM MgCl2, tagless Cyclophilin A, His6-K-Ras-GMPPNP, and GST-BRAF^RBD were combined in a 384-well assay plate at final concentrations of 25 μM, 12.5 nM, and 50 nM, respectively. Compound was present in plate wells as a 10-point 3-fold dilution series starting at a final concentration of 30 μM. After incubation at 25° C. for 3 hours, a mixture of anti-His Eu-W1024 and anti-GST allophycocyanin was then added to assay sample wells at final concentrations of 10 nM and 50 nM, respectively, and the reaction incubated for an additional 1.5 hours. […] Compounds that facilitate disruption of a K-Ras:RAF complex were identified as those eliciting a decrease in the TR-FRET ratio relative to DMSO control wells.

KRAS G13D [2] = target: T2, KRAS G13D (Homo sapiens, UniProt P01116+P62937, G13D); experiment: Ras-Raf disruption / FRET / MOA assay (BRAF RBD); assay type: biochemical; conditions: with Cyclophilin A
T2 sequence (P01116 1-169 isoform P01116-2 G13D limits assumed): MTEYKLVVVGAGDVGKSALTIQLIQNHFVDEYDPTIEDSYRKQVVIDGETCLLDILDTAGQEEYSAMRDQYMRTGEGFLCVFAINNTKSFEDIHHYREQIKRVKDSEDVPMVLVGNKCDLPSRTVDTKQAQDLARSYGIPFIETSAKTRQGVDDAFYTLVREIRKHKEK
T2 sequence (P62937 whole entry): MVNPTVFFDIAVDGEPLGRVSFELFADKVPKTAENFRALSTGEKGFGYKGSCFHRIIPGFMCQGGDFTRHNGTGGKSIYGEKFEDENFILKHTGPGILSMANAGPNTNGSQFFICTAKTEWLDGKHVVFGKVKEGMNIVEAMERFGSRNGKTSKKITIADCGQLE
Source text: as §1, §2, §3, §4

KRAS WT [3] = target: T3, KRAS WT (Homo sapiens, UniProt P01116+P62937); experiment: Ras-Raf disruption / FRET / MOA assay (BRAF RBD); assay type: biochemical; conditions: with Cyclophilin A
T3 sequence (P01116 1-169 isoform P01116-2 limits assumed): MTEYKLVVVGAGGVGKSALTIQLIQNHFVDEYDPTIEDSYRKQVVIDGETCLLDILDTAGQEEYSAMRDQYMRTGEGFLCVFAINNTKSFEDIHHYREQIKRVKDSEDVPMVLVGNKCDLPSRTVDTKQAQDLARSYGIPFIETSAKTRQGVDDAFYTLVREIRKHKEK
T3 sequence (P62937 whole entry): as the sequence (P62937 whole entry) above
Source text: as §1, §2, §3, §4

KRAS G12S [4] = target: T4, KRAS G12S (Homo sapiens, UniProt P01116+P62937, G12S); experiment: Ras-Raf disruption / FRET / MOA assay (BRAF RBD); assay type: biochemical; conditions: with Cyclophilin A
T4 sequence (P01116 1-169 isoform P01116-2 G12S limits assumed): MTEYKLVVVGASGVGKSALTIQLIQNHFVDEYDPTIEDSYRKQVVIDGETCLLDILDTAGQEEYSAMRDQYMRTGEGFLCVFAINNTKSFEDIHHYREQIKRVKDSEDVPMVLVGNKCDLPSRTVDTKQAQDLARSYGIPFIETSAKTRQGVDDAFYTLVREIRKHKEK
T4 sequence (P62937 whole entry): as the sequence (P62937 whole entry) above
Source text: as §1, §2, §3, §4

NRAS Q61R = NRAS Q61R (Homo sapiens, UniProt P01111+P62937, Q61R); experiment: Disruption of BRAF RBD interaction with Ras (FRET / MOA assay, with Cyclophilin A); assay type: biochemical; conditions: NRAS Q61R; read-out: NRAS Q61R FRET data IC50
NRAS Q61R, sequence (P01111 whole entry Q61R, the tested form may be a part): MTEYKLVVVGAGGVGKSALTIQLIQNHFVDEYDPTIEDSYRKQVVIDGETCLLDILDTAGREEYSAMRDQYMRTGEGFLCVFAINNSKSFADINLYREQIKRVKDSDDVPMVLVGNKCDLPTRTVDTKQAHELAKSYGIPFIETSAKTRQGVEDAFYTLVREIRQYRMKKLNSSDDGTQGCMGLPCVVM
NRAS Q61R, sequence (P62937 whole entry, the tested form may be a part): as the sequence (P62937 whole entry) above
Source text: (§5) Disruption of B-Raf Ras-Binding Domain (BRAF^RBD) Interaction with K-Ras by Compounds of the Invention (Also Called a FRET Assay or an MOA Assay)
(§6) Note—The following protocol describes a procedure for monitoring disruption of K-Ras G12C (GMP-PNP) binding to BRAF^RBD by a compound of the invention. This protocol may also be executed substituting other Ras proteins or nucleotides.
as §3
as §4, with “12.5 nM” for “12.5 nM,”, “of Anti-His” for “of anti-His”
as §3, with “BRAF^RBDD” for “BRAF^RBD”

NRAS Q61K = NRAS Q61K (Homo sapiens, UniProt P01111+P62937, Q61K); experiment: as above; assay type: biochemical; conditions: NRAS Q61K; read-out: NRAS Q61K FRET data IC50
NRAS Q61K, sequence (P01111 whole entry Q61K): as the sequence (P01111 whole entry Q61R, the tested form may be a part) above, with R61K counted along it
NRAS Q61K, sequence (P62937 whole entry): as the sequence (P62937 whole entry) above
Source text: as §5, §6, §3
as §4, with “12.5 nM” for “12.5 nM,”, “of Anti-His” for “of anti-His”
as §3, with “BRAF^RBDD” for “BRAF^RBD”

NCI-H358 (K-Ras G12C) = experiment: CellTiter-Glo cell viability assay, 5-day treatment; assay type: cell-based; conditions: Homo sapiens, NCI-H358, 120 h, 5-day treatment; read-out: H358 Cell Viability assay data (K-Ras G12C, IC50)
How it was run: (§7)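 Five-day compound treatment of plated cells; luminescent read after ~30 min at RT. Percent-of-DMSO data fit to a four-parameter logistic model.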

Capan-1 (K-Ras G12V) = experiment: as above; assay type: cell-based; conditions: Homo sapiens, CAPAN-1, 120 h, 5-day treatment; read-out: Capan-1 Cell Viability assay data (K-Ras G12V, IC50)
How it was run: as §7

NRAS G12C = NRAS G12C (Homo sapiens, UniProt P01111+P62937, G12C); experiment: Disruption of BRAF RBD interaction with Ras (FRET / MOA assay, with Cyclophilin A); assay type: biochemical
NRAS G12C, sequence (P01111 whole entry G12C): as the sequence (P01111 whole entry Q61R, the tested form may be a part) above, with G12C, R61Q counted along it
NRAS G12C, sequence (P62937 whole entry): as the sequence (P62937 whole entry) above

KRAS G12V [5] = target: T1, KRAS G12V; experiment: as above; assay type: biochemical
How it was run: (§8)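 Here, compound titrations (ten points, factor 3, from 30 μM final) act on nucleotide-bound K-Ras and Cyclophilin A, and ternary complex formation disrupts the RAF RBD interaction.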

KRAS G13C = KRAS G13C (Homo sapiens, UniProt P01116+P62937, G13C); experiment: as above; assay type: biochemical
KRAS G13C, sequence (P01116 1-169 isoform P01116-2 G13C): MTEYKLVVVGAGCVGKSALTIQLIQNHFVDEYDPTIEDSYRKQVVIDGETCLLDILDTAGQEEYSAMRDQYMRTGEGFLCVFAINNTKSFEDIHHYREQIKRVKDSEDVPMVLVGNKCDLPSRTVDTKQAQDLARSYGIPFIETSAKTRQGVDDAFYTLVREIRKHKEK
KRAS G13C, sequence (P62937 whole entry): as the sequence (P62937 whole entry) above
How it was run: as §8

KRAS G13D [6] = target: T2, KRAS G13D; experiment: as above; assay type: biochemical
How it was run: as §8

KRAS WT [7] = target: T3, KRAS WT; experiment: as above; assay type: biochemical
How it was run: as §8

KRAS G12D = KRAS G12D (Homo sapiens, UniProt P01116+P62937, G12D); experiment: as above; assay type: biochemical
KRAS G12D, sequence (P01116 1-169 isoform P01116-2 G12D limits assumed): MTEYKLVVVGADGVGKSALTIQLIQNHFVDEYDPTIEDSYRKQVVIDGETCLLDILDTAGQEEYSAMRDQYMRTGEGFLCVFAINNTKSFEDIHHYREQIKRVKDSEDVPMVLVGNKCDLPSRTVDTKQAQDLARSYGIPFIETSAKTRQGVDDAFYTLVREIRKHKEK
KRAS G12D, sequence (P62937 whole entry): as the sequence (P62937 whole entry) above
How it was run: as §8

KRAS G12S [8] = target: T4, KRAS G12S; experiment: as above; assay type: biochemical
How it was run: as §8

KRAS G12C = KRAS G12C (Homo sapiens, UniProt P01116+P62937, G12C); experiment: as above; assay type: biochemical
KRAS G12C, sequence (P01116 1-169 isoform P01116-2 G12C): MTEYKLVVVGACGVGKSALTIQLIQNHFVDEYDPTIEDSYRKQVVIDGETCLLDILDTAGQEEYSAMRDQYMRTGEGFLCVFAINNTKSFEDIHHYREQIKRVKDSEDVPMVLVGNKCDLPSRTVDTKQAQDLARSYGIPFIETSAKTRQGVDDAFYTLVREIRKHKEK
KRAS G12C, sequence (P62937 whole entry): as the sequence (P62937 whole entry) above
How it was run: as §8

[9] = Ras-Raf disruption, read-out: KRAS G12V FRET data IC50
[10] = Ras-Raf disruption, read-out: KRAS G13D FRET data IC50
[11] = Ras-Raf disruption, read-out: KRAS WT FRET data IC50
[12] = Ras-Raf disruption, read-out: KRAS G12S FRET data IC50

T1 sequence (P01116 1-169 isoform P01116-2 G12V limits assumed): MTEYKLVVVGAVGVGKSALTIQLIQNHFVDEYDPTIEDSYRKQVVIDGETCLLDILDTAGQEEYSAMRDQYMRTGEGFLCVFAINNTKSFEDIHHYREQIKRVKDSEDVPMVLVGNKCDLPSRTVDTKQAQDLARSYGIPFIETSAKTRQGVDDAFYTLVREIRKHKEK
T1 sequence (P62937 whole entry, the tested form may be a part): as the sequence (P62937 whole entry) above

CCn1c(-c2cnccc2COC)c2c3cc(ccc31)-c1cccc(c1)C[C@H](NC(=O)[C@H](C(C)C)N(C)C(=O)[C@@H]1CCC(N=C=Nc3ccc(OC)cc3)C1)C(=O)N1CCC[C@H](N1)C(=O)OCC(C)(C)C2 (stereo partly drawn) [70 A and B]
IC50 (KRAS G12V [1]; [9]): > 10 µM
IC50 (KRAS G13D [2]; [10]): > 10 µM
IC50 (KRAS WT [3]; [11]): > 10 µM
IC50 (KRAS G12S [4]; [12]): > 10 µM

CCn1c(-c2cnccc2COC)c2c3cc(ccc31)-c1cccc(c1)C[C@H](NC(=O)[C@H](C(C)C)N(C)C(=O)CCN=C=NCCc1cccs1)C(=O)N1CCC[C@H](N1)C(=O)OCC(C)(C)C2 [68 A and B]
IC50 (KRAS G12V [1]; [9]): > 10 µM
IC50 (KRAS G13D [2]; [10]): > 10 µM
IC50 (KRAS WT [3]; [11]): > 10 µM
IC50 (KRAS G12S [4]; [12]): > 10 µM

CCn1c(-c2cnccc2COC)c2c3cc(ccc31)-c1cccc(c1)C[C@H](NC(=O)[C@H](C(C)C)N(C)C(=O)CCN=C=NCc1ccccc1)C(=O)N1CCC[C@H](N1)C(=O)OCC(C)(C)C2 [19 A and B]
IC50 (KRAS G12V [1]; [9]): > 10 µM
IC50 (KRAS WT [3]; [11]): > 10 µM
IC50 (KRAS G12S [4]; [12]): > 10 µM

CCn1c(-c2cnccc2COC)c2c3cc(ccc31)-c1cc(O)cc(c1)C[C@H](NC(=O)[C@H](C(C)C)N(C)C(=O)CN(C)C(=O)C1CN1)C(=O)N1CCC[C@H](N1)C(=O)OCC(C)(C)C2 (stereo partly drawn) [32 A and B]
IC50 (KRAS G12V [1]; KRAS G12V FRET data IC50, Ras-Raf disruption): > 10 µM
IC50 (KRAS G13D [2]; KRAS G13D FRET data IC50, Ras-Raf disruption): 1 to 10 µM
IC50 (KRAS WT [3]; KRAS WT FRET data IC50, Ras-Raf disruption): > 10 µM
IC50 (KRAS G12S [4]; KRAS G12S FRET data IC50, Ras-Raf disruption): > 10 µM

CCn1c(-c2cccnc2[C@H](C)OC)c2c3cc(ccc31)-c1csc(n1)C[C@H](NC(=O)[C@H](C(C)C)N(C)C(=O)N1CCO[C@H](C)C1)C(=O)N1CCC[C@H](N1)C(=O)OCC(C)(C)C2 [Example A310]
IC50 (NRAS Q61R): 10 to 100 nM

CCC[C@H]1CCN1C(=O)N[C@H]1Cc2nc(cs2)-c2ccc3c(c2)c(c(-c2cccnc2[C@H](C)OC)n3CC)CC(C)(C)COC(=O)[C@@H]2CCCN(N2)C1=O [Example A264]
IC50 (NRAS Q61R): 100 to 1000 nM

CCn1c(-c2cnccc2COC)c2c3cc(ccc31)-c1cccc(c1)C[C@H](NC(=O)[C@H](C(C)C)N(C)C(=O)CCN=C=NCc1ccc(OC)cc1)C(=O)N1CCC[C@H](N1)C(=O)OCC(C)(C)C2 [18 A and B]
IC50 (KRAS G12V [1]; [9]): > 10 µM
IC50 (KRAS WT [3]; [11]): > 10 µM
IC50 (KRAS G12S [4]; [12]): > 10 µM

CCn1c(-c2cccnc2[C@H](C)OC)c2c3cc(ccc31)-c1csc(n1)C[C@H](NC(=O)[C@H](C(C)C)N(C)C(=O)N1CC(C(C)(C)O)C1)C(=O)N1CCC[C@H](N1)C(=O)OCC(C)(C)C2 (atropisomer, axis not shown) [Example A289]
IC50 (NRAS Q61K): 10 to 100 nM
IC50 (NCI-H358 (K-Ras G12C)): < 10 nM

CCn1c(-c2cnccc2COC)c2c3cc(ccc31)-c1cccc(c1)C[C@H](NC(=O)[C@H](C(C)C)N(C)C(=O)CCCN=C=NCCCOC)C(=O)N1CCC[C@H](N1)C(=O)OCC(C)(C)C2 [69 A and B]
IC50 (KRAS G12V [1]; [9]): 1 to 10 µM

CCn1c(-c2cnccc2COC)c2c3cc(ccc31)-c1cccc(c1)C[C@H](NC(=O)[C@H](C(C)C)N(C)C(=O)CCN=C=NCCCSC)C(=O)N1CCC[C@H](N1)C(=O)OCC(C)(C)C2 [16 A and B]
IC50 (KRAS G13D [2]; [10]): > 10 µM
IC50 (KRAS G12S [4]; [12]): > 10 µM

CCn1c(-c2cccnc2[C@H](C)OC)c2c3cc(ccc31)-c1cc(O)cc(c1)C[C@H](NC(=O)[C@H](C(C)C)N(C)C(=O)[C@H]1C[C@H](O)C1)C(=O)N1CCC[C@H](N1)C(=O)OCC(C)(C)C2 [Example A241]
IC50 (NCI-H358 (K-Ras G12C)): 100 to 1000 nM
IC50 (Capan-1 (K-Ras G12V)): 100 to 1000 nM
IC50 (NRAS G12C; NRAS G12C, read-out: NRAS G12C FRET data IC50): 100 to 1000 nM
IC50 (KRAS G12V [5]; KRAS G12V, read-out: KRAS G12V FRET data IC50): 100 to 1000 nM
IC50 (KRAS G13C; read-out: KRAS G13C FRET data, IC50): 10 to 100 nM
IC50 (KRAS G13D [6]; KRAS G13D, read-out: KRAS G13D FRET data IC50): 100 to 1000 nM
IC50 (KRAS WT [7]; KRAS WT, read-out: KRAS WT FRET data IC50): 10 to 100 nM
IC50 (KRAS G12D; read-out: KRAS G12D FRET data, IC50): 100 to 1000 nM
IC50 (KRAS G12S [8]; read-out: KRAS G12S FRET data, IC50): 100 to 1000 nM
IC50 (KRAS G12C; read-out: KRAS G12C FRET data, IC50): 10 to 100 nM

CCn1c(-c2cccnc2[C@H](C)OC)c2c3cc(ccc31)-c1cc(O)cc(c1)C[C@H](NC(=O)[C@H](C(C)C)N(C)C(=O)[C@@H]1CC1(F)F)C(=O)N1CCC[C@H](N1)C(=O)OCC(C)(C)C2 [Example A167]
IC50 (NCI-H358 (K-Ras G12C)): 100 to 1000 nM
IC50 (Capan-1 (K-Ras G12V)): 100 to 1000 nM
IC50 (NRAS G12C; NRAS G12C FRET data IC50, NRAS G12C): 100 to 1000 nM
IC50 (KRAS G12V [5]; KRAS G12V FRET data IC50, KRAS G12V): 100 to 1000 nM
IC50 (KRAS G13C; KRAS G13C FRET data, IC50): 100 to 1000 nM
IC50 (KRAS G13D [6]; KRAS G13D FRET data IC50, KRAS G13D): 100 to 1000 nM
IC50 (KRAS WT [7]; KRAS WT FRET data IC50, KRAS WT): 100 to 1000 nM
IC50 (KRAS G12D; KRAS G12D FRET data, IC50): 100 to 1000 nM
IC50 (KRAS G12S [8]; KRAS G12S FRET data, IC50): 100 to 1000 nM
IC50 (KRAS G12C; KRAS G12C FRET data, IC50): 100 to 1000 nM
